Test results taken from patent publication US8486931B2, “Substituted oxindole compounds” (Abbott GmbH & Co. KG, priority 2007, dated 2013).

Molecular target: T1, human vasopressin V1b receptor (Homo sapiens, UniProt P47901)
T1 construct: expressed in transfected cells; host or cells: CHO-K1 (cell line hV1b-3H2_CHO), membrane preparation
T1 sequence (P47901 1-424): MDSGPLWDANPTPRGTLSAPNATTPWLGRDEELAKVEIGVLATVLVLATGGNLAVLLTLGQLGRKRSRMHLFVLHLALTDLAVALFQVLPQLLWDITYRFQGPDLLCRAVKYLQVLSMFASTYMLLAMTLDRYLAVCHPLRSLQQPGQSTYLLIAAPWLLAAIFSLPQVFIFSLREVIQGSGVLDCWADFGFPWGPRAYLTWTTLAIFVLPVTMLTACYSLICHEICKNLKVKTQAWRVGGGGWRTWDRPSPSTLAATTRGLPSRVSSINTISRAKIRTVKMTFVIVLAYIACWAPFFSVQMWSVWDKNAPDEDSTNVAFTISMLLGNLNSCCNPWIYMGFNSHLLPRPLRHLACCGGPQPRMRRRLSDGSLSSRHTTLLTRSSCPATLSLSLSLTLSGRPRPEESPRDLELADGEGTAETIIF
Assay: Vasopressin V1b receptor binding assay
Conditions: membranes from CHO-K1 cells with stably expressed human V1b receptors, 1.5 nM 3H-AVP displacement; with more than one stereogenic center: the diastereomer with stronger affinity
Protocol: Such compounds can be investigated in suitable assays which establish the affinity to a receptor, with the affinity constant Ki represening a measure of the potency of the compounds and a smaller value representing a larger potency. The compounds of the invention were tested in the following receptor binding assay for their affinity for the V1 b receptor.
Vasopressin V1 b Receptor Binding Assay:
The test substances were dissolved in a concentration of 10^−2 M in DMSO (dimethyl sulfoxide) and further diluted to 5×10^−4 M to 5×10^−9 M in DMSO. This series of DMSO predilutions was diluted 1:10 with assay buffer. The substance concentration was again diluted 1:5 in the assay mixture (2% DMSO in the mixture).
The membrane pellet was again homogenized and centrifuged as described and then taken up in 50 mM Tris-HCl, pH 7.4, homogenized and stored in aliquots frozen in liquid nitrogen at −190° C.
The incubation buffer was: 50 mM Tris, 10 mM MgCl2, 0.1% BSA, pH 7.4.
The nonspecific binding was determined with 1 μM AVP (Bachem #H1780). All determinations were carried out as triplicate determinations. After incubation (60 minutes at room temperature), the free radioligand was removed by vacuum filtration (Skatron cell harvester 7000) through Whatman GF/B glass fiber filter mats, and the filters were transferred into scintillation vials. The liquid scintillation measurement took place in a Tricarb model 2000 or 2200CA instrument (Packard). Conversion of the measured cpm into dpm was carried out with the aid of a standard quench series.
The binding parameters were calculated by nonlinear regression in SAS.
The above assay was used to measure the affinities of the compounds of the invention for the human vasopressin V1 b receptor and to determine with affinity constants (Ki).

| Ki [µM] | Compound |
| --- | --- |
| < 0.01 | CCOc1ccc(CC)cc1C1(N2CCN(c3ccnc(C)c3)CC2)C(=O)N(S(=O)(=O)c2ccc(OC)c3cccnc23)c2ccc(C#N)cc21 (racemic) [Example 160, (±)-5-Cyano-3-(2-ethoxy-5-ethyl-phenyl)-1-(5-methoxy-quinoline-8-sulfonyl)-3-[4-(2-methyl-pyridin-4-yl)-piperazin-1-yl]-2,3-dihydro-1H-indol-2-one] |
| < 0.01 | CCOc1ccc(OC)cc1C1(N2CCCN(c3ccnc(C)c3)CC2)C(=O)N(S(=O)(=O)c2ccc(OC)c3cccnc23)c2ccc(C#N)cc21 (racemic) [Example 73, (±)-5-Cyano-3-(2-ethoxy-5-methoxyphenyl)-1-(5-methoxyquinoline-8-sulfonyl)-3-[4-(2-methylpyridin-4-yl)-[1,4]diazepan-1-yl]-2,3-dihydro-1H-indol-2-one] |
| < 0.01 | CCOc1nc(Cl)ccc1C1(N2CCN(c3ccnc(C)c3)CC2)C(=O)N(S(=O)(=O)c2ccc(OC)c3cccnc23)c2ccc(C#N)cc21 (racemic) [Example 85, (±)-5-Cyano-3-(6-chloro-2-ethoxypyridin-3-yl)-1-(5-methoxyquinoline-8-sulfonyl)-3-[4-(2-methylpyridin-4-yl)piperazin-1-yl]-2,3-dihydro-1H-indol-2-one] |
| 0.01 to 0.05 | CCOc1ccccc1C1(N2CCN(c3ccncc3)CC2)C(=O)N(S(=O)(=O)c2ccc(OCC)c3cccnc23)c2ccc(C#N)cc21 (single isomer, unassigned; (+)) [Example 67, (+)-5-Cyano-3-(2-ethoxyphenyl)-1-(5-ethoxyquinoline-8-sulfonyl)-3-(4-pyridin-4-yl-piperazin-1-yl)-2,3-dihydro-1H-indol-2-one] |
| 0.01 to 0.05 | CCOc1ccccc1C1(N2CCN(c3ccnc(C(C)C)c3)CC2)C(=O)N(S(=O)(=O)c2ccc(OC)cn2)c2ccc(C#N)cc21 (racemic) [Example 150, (±)-5-Cyano-3-(2-ethoxy-phenyl)-3-[4-(2-isopropyl-pyridin-4-yl)-piperazin-1-yl]-1-(5-methoxy-pyridine-2-sulfonyl)-2,3-dihydro-1H-indol-2-one] |
| < 0.01 | CCOc1ccc(OC)cc1C1(N2CCN(c3ccnc(C4CC4)c3)CC2)C(=O)N(S(=O)(=O)c2cccc3cccnc23)c2ccc(C#N)cc21 (racemic) [Example 66, (±)-5-Cyano-3-[4-(2-cyclopropylpyridin-4-yl)piperazin-1-yl]-3-(2-ethoxy-5-methoxyphenyl)-1-(quinoline-8-sulfonyl)-2,3-dihydro-1H-indol-2-one] |
| < 0.01 | CCOc1ccc(C)cc1C1(N2CCN(c3ccnc(C)c3)CC2)C(=O)N(S(=O)(=O)c2ccc(OC)cn2)c2ccc(C#N)cc21 (racemic) [Example 180, (±)-5-Cyano-3-(2-ethoxy-5-methyl-phenyl)-1-(5-methoxy-pyridine-2-sulfonyl)-3-[4-(2-methyl-pyridin-4-yl)-piperazin-1-yl]-2,3-dihydro-1H-indol-2-one] |
| < 0.01 | CCOc1cc(OC)ccc1C1(N2CCC(N3CCN(C)CC3)CC2)C(=O)N(S(=O)(=O)c2ccc(OC)cn2)c2ccc(C#N)cc21 (racemic) [Example 171, (±)-5-Cyano-3-(2-ethoxy-4-methoxy-phenyl)-1-(5-methoxy-pyridine-2-sulfonyl)-3-[4-(4-methyl-piperazin-1-yl)-piperidin-1-yl]-2,3-dihydro-1H-indol-2-one] |
| < 0.01 | CCOc1ccc(OC)cc1C1(N2CCN(C3CCNCC3)CC2)C(=O)N(S(=O)(=O)c2ccc(OC)cn2)c2ccc(C#N)cc21 (racemic) [Example 172, (±)-5-Cyano-3-(2-ethoxy-5-methoxy-phenyl)-1-(5-methoxy-pyridine-2-sulfonyl)-3-(4-piperidin-4-yl-piperazin-1-yl)-2,3-dihydro-1H-indol-2-one] |
| < 0.01 | CCOc1ccc(OC)cc1C1(N2CCN(c3ccnc(C)c3)CC2)C(=O)N(S(=O)(=O)c2ccc(OC)cn2)c2ccc(C#N)cc21 (single isomer, unassigned; (+)) [Example 164, (+)-5-Cyano-3-(2-ethoxy-5-methoxy-phenyl)-1-(5-methoxy-pyridine-2-sulfonyl)-3-[4-(2-methyl-pyridin-4-yl)-piperazin-l-yl]-2,3-dihydro-1H-indol-2-one] |

Further lines, the compound ahead of its results:

| Compound | Ki [µM] |
| --- | --- |
| CCOc1ccccc1C1(N2CCN(c3ccncc3)CC2)C(=O)N(S(=O)(=O)c2ccc(F)c3cccnc23)c2ccc(C#N)cc21 (racemic) [Example 26, (±)-5-Cyano-3-(2-ethoxyphenyl)-1-(5-fluoroquinoline-8-sulfonyl)-3-(4-pyridin-4-yl-piperazin-1-yl)-2,3-dihydro-1H-indol-2-one] | 0.01 to 0.05 |
| CCOc1ccccc1C1(N2CCN(c3ccnc(CC)c3)CC2)C(=O)N(S(=O)(=O)c2cccc3cccnc23)c2ccc(C#N)cc21 (racemic) [Example 56, (±)-5-Cyano-3-(2-ethoxyphenyl)-3-[4-(2-ethylpyridin-4-yl)piperazin-1-yl]-1-(quinoline-8-sulfonyl)-2,3-dihydro-1H-indol-2-one] | 0.01 to 0.05 |
| CCOc1ccccc1C1(N2CCN(c3ccncc3)CC2C)C(=O)N(S(=O)(=O)c2cccc3cccnc23)c2ccc(C#N)cc21 (racemic) [Example 6, (±)-5-Cyano-3-(2-ethoxyphenyl)-3-(2-methyl-4-pyridin-4-ylpiperazin-1-yl)-1-(quinoline-8-sulfonyl)-2,3-dihydro-1H-indol-2-one] | < 0.01 |
| CCOc1nc(Cl)ccc1C1(N2CCN(c3ccncc3)CC2)C(=O)N(S(=O)(=O)c2ccc(C)cn2)c2ccc(C#N)cc21 (racemic) [Example 23, (±)-5-Cyano-3-(6-chloro-2-ethoxypyridin-3-yl)-1-(5-methylpyridine-2-sulfonyl)-3-(4-pyridin-4-ylpiperazin-1-yl)-2,3-dihydro-1H-indol-2-one] | 0.01 to 0.05 |
| CCOc1ccc(OC)cc1C1(N2CCCN(c3ccnc(C)c3)CC2)C(=O)N(S(=O)(=O)c2ccc(OC)cn2)c2ccc(C#N)cc21 (racemic) [Example 65, (±)-5-Cyano-3-(2-ethoxy-5-methoxyphenyl)-1-(5-methoxypyridine-2-sulfonyl)-3-[4-(2-methylpyridin-4-yl)-[1,4]diazepan-1-yl]-2,3-dihydro-1H-indol-2-one] | < 0.01 |
| COc1ccc(C)cc1C1(N2CCN(c3ccncc3)CC2)C(=O)N(S(=O)(=O)c2cccc3cccnc23)c2ccc(C#N)cc21 (racemic) [Example 51, (±)-5-Cyano-3-(2-methoxy-5-methylphenyl)-3-(4-pyridin-4-ylpiperazin-1-yl)-1-quinoline-8-sulfonyl)-2,3-dihydro-1H-indol-2-one] | < 0.01 |
| CCOc1cc(F)ccc1C1(N2CCN(c3ccncc3)CC2)C(=O)N(S(=O)(=O)c2ccc(OC)c3cccnc23)c2ccc(C#N)cc21 (racemic) [Example 31, (±)-5-Cyano-3-(2-ethoxy-4-fluorophenyl)-1-(5-methoxyquinoline-8-sulfonyl)-3-(4-pyridin-4-ylpiperazin-1-yl)-2,3-dihydro-1H-indol-2-one] | 0.01 to 0.05 |
| COc1ccccc1C1(N2CCN(c3ccncc3)CC2)C(=O)N(S(=O)(=O)c2cccc3cccnc23)c2ccc(Cl)cc21 (racemic) [Example 37, (±)-5-Chloro-3-(2-methoxyphenyl)-3-(4-pyridin-4-ylpiperazin-1-yl)-1-(quinoline-8-sulfonyl)-1,3-dihydroindol-2-one] | < 0.01 |
| (+)-5-Cyano-3-(2-ethoxy-5-methoxy-phenyl)-1-(5-methoxy-pyridine-2-sulfonyl)-3-[4-(4-methyl-piperazin-1-yl)-piperidin-1-yl]-2,3-dihydro-1H-indol-2-one [Example 158] | < 0.01 |
